Data published in patent US5086045A, “Antitumor antibiotic” (Bristol-Myers Squibb Company, priority 1990, dated 1992).
In brackets after ≈: the same amount, converted by molar mass. Entries after “also recorded” stand apart in the source; their conditions may differ.

How the values were obtained:
a variety of bacteria = assay: Antimicrobial activity, serial two-fold agar dilution, overall; assay type: cell-based
Protocol: (§1) Antimicrobial activity of BMY-41339 was determined for a variety of bacteria by the serial two-fold agar dilution method.

P388 leukemia = assay: In vivo antitumor activity, P388 leukemia implanted iv, drug iv; design: species or system mouse;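 for % T/C: median survival time of treated over control mice times 100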;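 for T/C: median survival time of treated over control mice times 100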
Protocol: The in vivo antitumor activity of BMY-41339 was determined in the standard P388 mouse leukemia model. A summary of the experiments performed using BMY-41339 is provided below.
DBA/2 and (Balb/c × DBA/2)F1 (CDF1) hybrid mice were purchased from Charles River Breeding Co. (Wilmington, MA). They were provided food and water ad libitum.
The P388 murine ascites leukemia was maintained by weekly in vivo passage in DBA/2 mice.
Esperamicin A1 and BMY-41339 were dissolved in ethanol. Further dilutions were made with 0.9% NaCl (saline) until the ethanol concentration (v/v) was 10%. All administrations were made, therefore, in a 10% ethanol in saline vehicle. For ip injections, the concentration of compound was adjusted according to the average initial body weight of each group of mice to be injected such that the desired dose would be contained in a 0.5 ml injection volume. The same procedure was used for iv compound administration except the injection volume was 0.2 ml.
Antitumor experiments were initiated by implanting […] P388 leukemia cells either ip or iv into CDF1 mice. BMY-41339 and esperamicin A1 (included as a positive reference compound), were injected either ip in mice implanted ip with P388, or iv in mice implanted iv with P388 on Day 2 post-implant only Eight different dose levels of BMY-41339, at two-fold increments, were evaluated in each of the two experiments performed.
A % T/C value of ≥ 125 was considered indicative of activity in these models.

P. aeruginosa A20235 = assay: Antibacterial activity (MIC), serial two-fold agar dilution; assay type: cell-based; settings: Pseudomonas aeruginosa
Protocol: as §1

S. aureus A24407 = assay: as above; assay type: cell-based; settings: Staphylococcus aureus
Protocol: as §1

P. aeruginosa A9843 = assay: as above; assay type: cell-based; settings: Pseudomonas aeruginosa
Protocol: as §1

E. coli A15119 = assay: as above; assay type: cell-based; settings: Escherichia coli
Protocol: as §1

B. subtilis A9506-A = assay: as above; assay type: cell-based; settings: Bacillus subtilis, A9506A
Protocol: as §1

P. vulgaris A21559 = assay: as above; assay type: cell-based; settings: Proteus vulgaris
Protocol: as §1

E. faecalis A20688 = assay: as above; assay type: cell-based; settings: Enterococcus faecalis
Protocol: as §1

S. aureus A9537 = assay: as above; assay type: cell-based; settings: Staphylococcus aureus
Protocol: as §1

[1] = Exp. 8102, iv, 0.025 mg/kg/dose
[2] = Exp. 8102, iv, same doses up to 3.2 μg/kg
[3] = Exp. 8109, iv, 0.025 mg/kg/dose

C=C(OC)C(=O)Nc1cc(OC)c(OC)cc1C(=O)OC1CC(OC2C(=O)C(NC(=O)OC)=C3C(=CCSSSSC)C2(O)C#CC=CC#CC3OC2OC(C)C(NOC3CC(O)C(SC)C(C)O3)C(O)C2OC2CC(OC)C(NC(C)C)CO2)OC(C)C1O (stereo not drawn) [BMY-41339]
antibacterial activity spectrum (a variety of bacteria): broad spectrum of antibacterial activity; also recorded: antimicrobial activity against a broad spectrum of bacteria
% T/C (P388 leukemia; [1]): 100%
Avg. wt. change on day 6 (P388 leukemia; [1]): 0.4 grams
Survivors on Day 5 (P388 leukemia; [1]): 6/6
% T/C (P388 leukemia; Exp. 8102, iv, 0.05 mg/kg/dose): 100%
Avg. wt. change on day 6 (P388 leukemia; Exp. 8102, iv, 0.05 mg/kg/dose): 0.1 grams
Survivors on Day 5 (P388 leukemia; Exp. 8102, iv, 0.05 mg/kg/dose): 6/6
% T/C (P388 leukemia; Exp. 8102, iv, 0.1 mg/kg/dose): 106%
Avg. wt. change on day 6 (P388 leukemia; Exp. 8102, iv, 0.1 mg/kg/dose): 0.4 grams
Survivors on Day 5 (P388 leukemia; Exp. 8102, iv, 0.1 mg/kg/dose): 6/6
% T/C (P388 leukemia; Exp. 8102, iv, 0.2 mg/kg/dose): 100%
Avg. wt. change on day 6 (P388 leukemia; Exp. 8102, iv, 0.2 mg/kg/dose): -0.3 grams
Survivors on Day 5 (P388 leukemia; Exp. 8102, iv, 0.2 mg/kg/dose): 6/6
% T/C (P388 leukemia; Exp. 8102, iv, 0.4 mg/kg/dose): 100%
Avg. wt. change on day 6 (P388 leukemia; Exp. 8102, iv, 0.4 mg/kg/dose): -0.4 grams
Survivors on Day 5 (P388 leukemia; Exp. 8102, iv, 0.4 mg/kg/dose): 6/6
% T/C (P388 leukemia; Exp. 8102, iv, 0.8 mg/kg/dose): 100%
Avg. wt. change on day 6 (P388 leukemia; Exp. 8102, iv, 0.8 mg/kg/dose): -0.3 grams
Survivors on Day 5 (P388 leukemia; Exp. 8102, iv, 0.8 mg/kg/dose): 6/6
% T/C (P388 leukemia; Exp. 8102, iv, 1.6 mg/kg/dose): 100%
Avg. wt. change on day 6 (P388 leukemia; Exp. 8102, iv, 1.6 mg/kg/dose): -0.1 grams
Survivors on Day 5 (P388 leukemia; Exp. 8102, iv, 1.6 mg/kg/dose): 6/6
% T/C (P388 leukemia; Exp. 8102, iv, 3.2 mg/kg/dose): 113%
Avg. wt. change on day 6 (P388 leukemia; Exp. 8102, iv, 3.2 mg/kg/dose): -0.2 grams
Survivors on Day 5 (P388 leukemia; Exp. 8102, iv, 3.2 mg/kg/dose): 6/6
effectiveness versus iv-implanted leukemia (P388 leukemia; [2]): not effective
maximum tolerated dose reached (P388 leukemia; [2]): no indication of having reached a maximum tolerated dose
T/C (P388 leukemia; Exp. 8109, iv, 16 μg/kg): 139%
% T/C (P388 leukemia; [3]): 100%
Avg. wt. change on day 6 (P388 leukemia; [3]): 0.4 grams
Survivors on Day 5 (P388 leukemia; [3]): 6/6
T/C (P388 leukemia; Exp. 8109, iv, 32 μg/kg): 156%
% T/C (P388 leukemia; Exp. 8109, iv, 0.05 mg/kg/dose): 100%
Avg. wt. change on day 6 (P388 leukemia; Exp. 8109, iv, 0.05 mg/kg/dose): 0.1 grams
Survivors on Day 5 (P388 leukemia; Exp. 8109, iv, 0.05 mg/kg/dose): 6/6
% T/C (P388 leukemia; Exp. 8109, iv, 0.1 mg/kg/dose): 106%
Avg. wt. change on day 6 (P388 leukemia; Exp. 8109, iv, 0.1 mg/kg/dose): 0.4 grams
Survivors on Day 5 (P388 leukemia; Exp. 8109, iv, 0.1 mg/kg/dose): 6/6
% T/C (P388 leukemia; Exp. 8109, iv, 0.2 mg/kg/dose): 100%
Avg. wt. change on day 6 (P388 leukemia; Exp. 8109, iv, 0.2 mg/kg/dose): -0.3 grams
Survivors on Day 5 (P388 leukemia; Exp. 8109, iv, 0.2 mg/kg/dose): 6/6
% T/C (P388 leukemia; Exp. 8109, iv, 0.4 mg/kg/dose): 100%
Avg. wt. change on day 6 (P388 leukemia; Exp. 8109, iv, 0.4 mg/kg/dose): -0.4 grams
Survivors on Day 5 (P388 leukemia; Exp. 8109, iv, 0.4 mg/kg/dose): 6/6
% T/C (P388 leukemia; Exp. 8109, iv, 0.8 mg/kg/dose): 100%
Avg. wt. change on day 6 (P388 leukemia; Exp. 8109, iv, 0.8 mg/kg/dose): -0.3 grams
Survivors on Day 5 (P388 leukemia; Exp. 8109, iv, 0.8 mg/kg/dose): 6/6
% T/C (P388 leukemia; Exp. 8109, iv, 1.6 mg/kg/dose): 100%
Avg. wt. change on day 6 (P388 leukemia; Exp. 8109, iv, 1.6 mg/kg/dose): -0.1 grams
Survivors on Day 5 (P388 leukemia; Exp. 8109, iv, 1.6 mg/kg/dose): 6/6
% T/C (P388 leukemia; Exp. 8109, iv, 3.2 mg/kg/dose): 113%
Avg. wt. change on day 6 (P388 leukemia; Exp. 8109, iv, 3.2 mg/kg/dose): -0.2 grams
Survivors on Day 5 (P388 leukemia; Exp. 8109, iv, 3.2 mg/kg/dose): 6/6
increases in lifespan (P388 leukemia; Exp. 8109, iv, at two dose levels evaluated): active increases
activity against disseminated iv implanted P388 leukemia (P388 leukemia; conclusion, when adequate dosage was administered): active against the disseminated iv implanted P388 leukemia model
MIC (P. aeruginosa A20235): 0.13 µg/mL (≈ 0.0958 µM)
MIC (S. aureus A24407): 0.001 µg/mL (≈ 0.000737 µM)
MIC (P. aeruginosa A9843): 0.25 µg/mL (≈ 0.184 µM)
MIC (E. coli A15119): 0.25 µg/mL (≈ 0.184 µM)
MIC (B. subtilis A9506-A): 0.001 µg/mL (≈ 0.000737 µM)
MIC (P. vulgaris A21559): 0.13 µg/mL (≈ 0.0958 µM)
MIC (E. faecalis A20688): 0.002 µg/mL (≈ 0.00147 µM)
MIC (S. aureus A9537): 0.001 µg/mL (≈ 0.000737 µM)
